Among the test systems are LOX IMVI; KM12; IGROV-1; RXF 393; COLO 205; CCRF-CEM; SK-OV-3; TK-10; SR; A549; ACHN; SK-MEL-5; HCC 2998; NCI-H226; CAKI-1; NCI-H460; HCT-15; UO-31; RPMI-8226; HT-29.
Common to all, as to assay: DTP human tumour cell line panel, 48 h

Structures are written as SMILES.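 Dose response: 5 concentrations. Exposure: 48 h. Format: 96-well plates. Endpoint: linear interpolation; highest concentration if not reached. The concentration for 50% growth inhibition is given as GI50.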 Calls of active or inactive are those of the source. No stated cut-off is given here; in the data, active = GI50 up to about 1.1 µM and inactive = higher.

On to `CN(C)c1n/c(=N/c2ccc(/N=c3\nc(N(C)C)ss3)cc2)ss1`, for which the GI50 was > 44.8 µM (inactive) with LOX IMVI; 47.3 µM (inactive) with KM12; 27.5 µM (inactive) in the assay with IGROV-1; 16.5 µM (inactive) in the assay on RXF 393; 28.2 µM (inactive) with COLO 205; 4.99 µM (inactive) in the assay with CCRF-CEM. Also, the GI50 in the assay on SK-OV-3 is > 100 µM (inactive); in the assay on TK-10, 24.2 µM (inactive); in the assay with SR, 6.01 µM (inactive); in the assay on A549, 37.9 µM (inactive); with ACHN it was 36.9 µM (inactive); in the assay on SK-MEL-5 it was 22.4 µM (inactive). Further, the GI50 with HCC 2998 was > 83 µM (inactive); in the assay on NCI-H226, 56.5 µM (inactive); with CAKI-1, > 44.3 µM (inactive); in the assay with NCI-H460, 30.2 µM (inactive); with HCT-15 it was 27 µM; in the assay on UO-31, 44 µM (inactive). The GI50 in the assay with RPMI-8226 was 9.68 µM (inactive); in the assay with HT-29 it was 21.9 µM (inactive).

As to `CC1(C)COC2C(N(Cc3ccccc3)Cc3ccccc3)C(=O)N21` (stereo not given), the GI50 is 46.6 µM (inactive) in the assay with LOX IMVI; 37.8 µM (inactive) in the assay on KM12; 41.9 µM (inactive) in the assay with IGROV-1; 19.3 µM (inactive) in the assay with RXF 393; 25.1 µM (inactive) in the assay with COLO 205; 32.7 µM (inactive) in the assay with CCRF-CEM. The GI50 in the assay on SK-OV-3 is 24.9 µM (inactive); with TK-10, 37.2 µM (inactive); in the assay on SR, 19.1 µM (inactive); in the assay on A549, 32.6 µM (inactive); in the assay on ACHN it was 35.6 µM (inactive); in the assay with SK-MEL-5, 37.2 µM (inactive). Besides, the GI50 in the assay on HCC 2998 was 41.7 µM (inactive); with NCI-H226, 47.2 µM (inactive); with CAKI-1, 39.2 µM (inactive); in the assay with NCI-H460 it was 39.7 µM (inactive); in the assay on HCT-15, 39.6 µM; in the assay with UO-31 it was 64.3 µM (inactive). Besides, the GI50 with RPMI-8226 was 20.9 µM (inactive); in the assay on HT-29, 31.8 µM (inactive).

As to `O=c1c2c3c(sc2nc(CN2CCNCC2)n1-c1ccccc1)CCCC3`, the GI50 in the assay on LOX IMVI, in the assay with KM12, in the assay on IGROV-1, with RXF 393, with COLO 205 and in the assay on CCRF-CEM was > 100 µM (inactive) each time. Besides, the GI50 in the assay on SK-OV-3, with TK-10, with SR, in the assay with A549, in the assay on ACHN and with SK-MEL-5 was > 100 µM (inactive) in each case. Also, the GI50 in the assay on HCC 2998 was > 100 µM (inactive); with NCI-H226, > 100 µM (inactive); in the assay on CAKI-1 it was 90.8 µM (inactive); with NCI-H460, > 100 µM (inactive); in the assay with HCT-15, > 100 µM; in the assay on UO-31, 54.2 µM (inactive). For the same compound, the GI50 in the assay on RPMI-8226 is > 100 µM (inactive); with HT-29 it was 35.9 µM (inactive).

One may read the GI50 as the concentration giving 50% growth inhibition.

The record behind these values is ChEMBL document CHEMBL1201862, “PubChem BioAssay data set” (2004).
